Source: publication PMC10690365, “Improved catalytic performance and molecular insight for lipoxygenase from Enterovibrio norvegicus via directed evolution” (Frontiers in Bioengineering and Biotechnology, 2023)
Numbering of substitutions follows the chain as printed.

Experiments:
[1] = molecular target: T1, EnLOX (wild-type, WT); lipoxygenase from Enterovibrio norvegicus (Enterovibrio norvegicus, UniProt A0A1I5T4S6, D95E/T99A/A121H/S142N/N444W/S613G, form not given); assay: absorbance at […] nm (hydroperoxide formation), Michaelis-Menten fit; format: biochemical; details: 20 mM Tris-HCl pH 8.0, 50 °C; substrate range printed as 10 to 300 mM (unit doubtful against the Km); mutant EAHNWG (F-12E); printed nucleotide changes do not fully match the amino acid positions
T1 construct: primer-encoded N-terminus MHRKKT
T1 sequence (A0A1I5T4S6 1-726 D95E/T99A/A121H/S142N/N444W/S613G): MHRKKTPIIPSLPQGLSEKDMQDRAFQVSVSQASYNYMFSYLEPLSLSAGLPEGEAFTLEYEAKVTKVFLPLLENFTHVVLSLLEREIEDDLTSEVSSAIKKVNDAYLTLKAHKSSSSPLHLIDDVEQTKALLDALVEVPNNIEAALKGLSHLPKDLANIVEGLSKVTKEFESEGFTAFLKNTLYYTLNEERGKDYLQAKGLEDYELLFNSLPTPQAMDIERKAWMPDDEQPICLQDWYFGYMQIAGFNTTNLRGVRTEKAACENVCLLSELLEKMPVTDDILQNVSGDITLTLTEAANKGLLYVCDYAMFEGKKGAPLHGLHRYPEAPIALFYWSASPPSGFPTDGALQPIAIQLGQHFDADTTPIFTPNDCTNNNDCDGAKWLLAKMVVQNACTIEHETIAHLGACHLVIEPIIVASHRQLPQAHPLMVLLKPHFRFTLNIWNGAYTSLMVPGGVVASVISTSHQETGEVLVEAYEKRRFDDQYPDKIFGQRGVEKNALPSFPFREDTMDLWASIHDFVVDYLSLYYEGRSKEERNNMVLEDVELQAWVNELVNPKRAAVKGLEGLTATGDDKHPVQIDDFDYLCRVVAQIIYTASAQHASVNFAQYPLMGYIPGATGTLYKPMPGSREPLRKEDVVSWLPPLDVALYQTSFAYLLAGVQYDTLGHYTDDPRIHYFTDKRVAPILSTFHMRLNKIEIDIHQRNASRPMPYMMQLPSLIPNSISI

[2] = molecular target: T2, EnLOX (wild-type, WT); lipoxygenase from Enterovibrio norvegicus (Enterovibrio norvegicus, UniProt A0A1I5T4S6); assay: as above; format: biochemical; details: 20 mM Tris-HCl pH 8.0, 50 °C; substrate range printed as 10 to 300 mM (unit doubtful against the Km)
T2 construct: primer-encoded N-terminus MHRKKT
T2 sequence (A0A1I5T4S6 1-726): T1 sequence (A0A1I5T4S6 1-726 D95E/T99A/A121H/S142N/N444W/S613G) with E95D, A99T, H121A, N142S, W444N, G613S

Question: With `CCCCC/C=C\C/C=C\CCCCCCCC(=O)O` [linoleic acid] as the compound, how does the Km [1] read?
Answer: The Km was 2360 ± 140 nM.

Question: What about the Km [2] of the same compound?
Answer: Its Km is 3.49 ± 0.21 µM.
